From patent publication US20240082222A1, “4-CHLORO-N-[2-[(4-CHLOROPHENYL)METHYL]-3-OXO-1,2,4-THIADIAZOL-5-YL]BENZAMIDE FOR USE IN MEDICINE” (Betagenon AB, priority 2021, published 2024)
Where “and” joins values, the source holds several entries; their conditions need not be identical. Equal values may be shown once. Where a name gives a salt, the structure may show the parent alone. Read-outs that look alike come from different tables or passages of the source.

Assay: Pharmacokinetic study in humans, sodium salt tablets, multiple dose (Example 3)
Format: in vivo, human
Experimental: An open, randomised, parallel-group study was conducted to evaluate the exposure and safety of 4-chloro-N-[2-[(4-chlorophenyl)methyl]-3-oxo-1,2,4-thiadiazol-5-yl]benzamide sodium salt tablets in doses of 212.12 mg and 424.24 mg (equivalent to 200 mg and 400 mg doses of 4-chloro-N-[2-[(4-chlorophenyl)methyl]-3-oxo-1,2,4-thiadiazol-5-yl]benzamide) at steady state in healthy volunteers (hereafter referred to as subjects).
Each “400 mg” tablet contained 424.24 mg of a sodium salt of 4-chloro-N-[2-[(4-chlorophenyl)methyl]-3-oxo-1,2,4-thiadiazol-5-yl]benzamide (Compound of formula II) which corresponds to 400 mg of the parent compound 4-chloro-N-[2-[(4-chlorophenyl)methyl]-3-oxo-1,2,4-thiadiazol-5-yl]benzamide.
Twenty (20) subjects were randomised (1:1) to treatment with either 200 mg (1 tablet of 200 mg) or 400 mg (1 tablet of 400 mg) of the test substance.
A screening visit (Visit 1) was performed within 28 days before randomisation and the start of IMP administration. The subjects arrived at the research clinic on Day 1 (Visit 2), randomised, and received the first administration of the test substance (200 mg or 400 mg as randomised).
The subjects returned to the clinic in the morning of Day 2 (Visit 3) for pre-dose PK sampling and subsequent administration of the test substance.
Before leaving the clinic, the subjects were provided with the test substance for 18 days once daily self-administration at home (Day 3 to Day 20).
After 18 days of home-based self-administration of the test substance, the subjects returned to the clinic in the morning of Day 21 (Visit 5) for pre-dose PK sampling and subsequent administration of the last dose of the test substance. The subjects remained at the clinic for at least 8 hours post-dose for safety assessments and additional PK sampling. In the morning of Day 22 (Visit 6), the subjects came for a last visit to the clinic for a final PK sample 24 hours after the last dose.
Venous blood samples (approximately 5 mL) for the determination of plasma concentrations of 4-chloro-N-[2-[(4-chlorophenyl)methyl]-3-oxo-1,2,4-thiadiazol-5-yl]benzamide after administration of the test substance were collected through an indwelling venous catheter on Days 2, 21 and 22.
The blood samples were collected in pre-labelled Li-Heparin tubes. All the collected blood samples were be centrifuged at 1500 G for 10 minutes to separate plasma within 60 minutes from the sample is drawn. The separated plasma from each blood sample was be divided into 2 aliquots in pre-labelled polypropylene cryotubes (A and B samples, approximately 750 μL in each tube) and frozen at <−70° C.
Samples for determination of plasma concentrations of 4-chloro-N-[2-[(4-chlorophenyl)methyl]-3-oxo-1,2,4-thiadiazol-5-yl]benzamide were analysed by Lablytica Life Science AB, Uppsala, Sweden by means of a validated LS-MS/MS method.
The data of plasma concentration to respective time points for the analyte (4-chloro-N-[2-[(4-chlorophenyl)methyl]-3-oxo-1,2,4-thiadiazol-5-yl]benzamide) were used for the pharmacokinetic analysis. Pharmacokinetic analysis was performed using non-compartmental analysis (NCA) module of Phoenix WinNonlin 8.1 software to determine the following pharmacokinetic parameters after multiple dose administration of test substance.
Primary endpoint: • Cmax, AUC0-last, Tmax at steady state Day 21 in each dose group.

[1] = 200 mg Dose Group, tablet once daily, Day 21, individual subjects, listed as O304 Na salt
[2] = 212 mg sodium salt in tablet form
[3] = 400 mg Dose Group, tablet once daily, Day 21, individual subjects, listed as O304 Na salt

O=C(Nc1nc(=O)n(Cc2ccc(Cl)cc2)s1)c1ccc(Cl)cc1 [Compound of formula II, sodium salt of 4-chloro-N-[2-[(4-chlorophenyl)methyl]-3-oxo-1,2,4-thiadiazol-5-yl]benzamide]
Tlast (200 mg Dose Group, tablet once daily, Day 21, Mean): 24.01 h
Tlast (200 mg Dose Group, tablet once daily, Day 21, Median): 24.0 h
Clast [1]: 80.1 µg/mL and 109 µg/mL and 144 µg/mL and 51.7 µg/mL and 76.9 µg/mL and 62.3 µg/mL and 65.1 µg/mL and 81.3 µg/mL and 53.4 µg/mL
Tlast [1]: 24.0 h (8×) and 24.1 h
Tmax [1]: 24.0 h and 0.00 h and 2.00 h and 4.00 h
increase in systemic accumulation from Day 1 to Day 21 [2]: approximately seven-fold
increase in systemic exposure, tablet compared to capsules containing 200 mg [2]: up to two-fold
Tlast (400 mg Dose Group, tablet once daily, Day 21, Mean): 24.07 h
Tlast (400 mg Dose Group, tablet once daily, Day 21, Median): 24.0 h
AUClast [3]: 4790 µg·h/mL and 3600 µg·h/mL and 2450 µg·h/mL and 2950 µg·h/mL and 3550 µg·h/mL and 2800 µg·h/mL and 2460 µg·h/mL
Clast [3]: 116 µg/mL and 201 µg/mL and 151 µg/mL and 96.7 µg/mL and 135 µg/mL and 144 µg/mL and 111 µg/mL and 106 µg/mL and 100 µg/mL
Cmax [3]: 201 µg/mL and 169 µg/mL and 106 µg/mL and 135 µg/mL and 168 µg/mL and 124 µg/mL and 105 µg/mL
Tlast [3]: 24.0 h (6×) and 24.4 h and 24.1 h (2×)
Tmax [3]: 24.4 h and 4.00 h and 8.02 h and 24.1 h and 24.0 h
increase in systemic accumulation from Day 1 to Day 21 (424 mg sodium salt in tablet form): approximately five-fold
AUC(0-t) (human, plasma, oral, 200 mg, 200 mg Dose Group, tablet once daily, Day 21, Mean): 1940 µg·h/mL
concentration at 24 h (human, plasma, oral, 200 mg, 200 mg Dose Group, tablet once daily, Day 21, Mean, read-out: Clast): 80.4 µg/mL
Cmax (human, plasma, oral, 200 mg, 200 mg Dose Group, tablet once daily, Day 21, Mean, read-out: Cmax): 86.8 µg/mL
Tmax (human, plasma, oral, 200 mg, 200 mg Dose Group, tablet once daily, Day 21, Mean, read-out: Tmax): 10.9 h
AUC(0-t) (human, plasma, oral, 200 mg, 200 mg Dose Group, tablet once daily, Day 21, Median): 1720 µg·h/mL
concentration at 24 h (human, plasma, oral, 200 mg, 200 mg Dose Group, tablet once daily, Day 21, Median, read-out: Clast): 76.9 µg/mL
Cmax (human, plasma, oral, 200 mg, 200 mg Dose Group, tablet once daily, Day 21, Median, read-out: Cmax): 77.1 µg/mL
Tmax (human, plasma, oral, 200 mg, 200 mg Dose Group, tablet once daily, Day 21, Median, read-out: Tmax): 8 h
concentration at 24 h (human, plasma, oral, 200 mg, 200 mg dose group (212.12 mg sodium salt tablet once daily), 24 h after dose of Day 1, read-out: Clast at 24 hours, Mean): 11.4 µg/mL
concentration at 24 h (human, plasma, oral, 200 mg, 200 mg dose group (212.12 mg sodium salt tablet once daily), 24 h after dose of Day 1, read-out: Clast at 24 hours, Median): 11.2 µg/mL
concentration at 24 h (human, plasma, oral, 200 mg, 200 mg dose group (212.12 mg sodium salt tablet once daily), 24 h after dose of Day 21, read-out: Clast at 24 hours, Mean): 80.4 µg/mL
concentration at 24 h (human, plasma, oral, 200 mg, 200 mg dose group (212.12 mg sodium salt tablet once daily), 24 h after dose of Day 21, read-out: Clast at 24 hours, Median): 76.9 µg/mL
AUC(0-t) (human, plasma, oral, 400 mg, 400 mg Dose Group, tablet once daily, Day 21, Mean): 3110 µg·h/mL
concentration at 24 h (human, plasma, oral, 400 mg, 400 mg Dose Group, tablet once daily, Day 21, Mean, read-out: Clast): 129 µg/mL
Cmax (human, plasma, oral, 400 mg, 400 mg Dose Group, tablet once daily, Day 21, Mean, read-out: Cmax): 138 µg/mL
Tmax (human, plasma, oral, 400 mg, 400 mg Dose Group, tablet once daily, Day 21, Mean, read-out: Tmax): 11.2 h
AUC(0-t) (human, plasma, oral, 400 mg, 400 mg Dose Group, tablet once daily, Day 21, Median): 2930 µg·h/mL
concentration at 24 h (human, plasma, oral, 400 mg, 400 mg Dose Group, tablet once daily, Day 21, Median, read-out: Clast): 116 µg/mL
Cmax (human, plasma, oral, 400 mg, 400 mg Dose Group, tablet once daily, Day 21, Median, read-out: Cmax): 132 µg/mL
Tmax (human, plasma, oral, 400 mg, 400 mg Dose Group, tablet once daily, Day 21, Median, read-out: Tmax): 4.02 h
AUC(0-t) (human, plasma, oral, 400 mg, 400 mg Dose Group, tablet once daily, Day 21, individual subjects): 2930 µg·h/mL
Cmax (human, plasma, oral, 400 mg, 400 mg Dose Group, tablet once daily, Day 21, individual subjects, read-out: Cmax): 132 µg/mL
concentration at 24 h (human, plasma, oral, 400 mg, 400 mg dose group (424.24 mg sodium salt tablet once daily), 24 h after dose of Day 1, read-out: Clast at 24 hours, Mean): 24.9 µg/mL
concentration at 24 h (human, plasma, oral, 400 mg, 400 mg dose group (424.24 mg sodium salt tablet once daily), 24 h after dose of Day 1, read-out: Clast at 24 hours, Median): 21.5 µg/mL
concentration at 24 h (human, plasma, oral, 400 mg, 400 mg dose group (424.24 mg sodium salt tablet once daily), 24 h after dose of Day 21, read-out: Clast at 24 hours, Mean): 129 µg/mL
concentration at 24 h (human, plasma, oral, 400 mg, 400 mg dose group (424.24 mg sodium salt tablet once daily), 24 h after dose of Day 21, read-out: Clast at 24 hours, Median): 116 µg/mL
peak blood plasma concentration (repeated dosing of 212 mg in the form of a tablet): ≥ 85 µg/mL
accumulation in the blood plasma after repeat dosing (tablets, once daily): substantial accumulation
